Where a name gives a salt, the structure may show the parent alone.
Columns and labels:
male Wistar rats = assay: Wake promotion, EEG/EMG sleep-wake monitoring (SCORE2004); conditions: for duration of wakefulness (total minutes of sleep loss): dosed at CT-5, various dose ranges
Description: Test compounds in various dose ranges or vehicle were administered to male Wistar rats 5 hours after lights on (CT-5). EEG, EMG, locomotor activity, drink- and food-related activity, and body temperature were concurrently monitored for 30 hr before and after treatment from rats living in separate isolated recording chambers.

[1] = Mechanical stress (micronizing); format: physicochemical; conditions: micronizing 20 minutes at 30 Hz, after standing 20 minutes; ball mill stress
Excerpt: FIG. 13 is two microscopic views of the hydrogen fumarate salt of compound 3d under mechanical stress.

[2] = Solubility (formulation studies)
[3] = Solid state and solution stability; conditions: for solid state stability to heat: 40° C. for 7 days; for solid state stability to UV: 220 W-h/m^2; for solid state stability to visible light: visible light exposure, 7.3×10^6 lux hours
[4] = Hygroscopicity testing and sorption isotherm; format: physicochemical; conditions: for hygroscopicity testing, appearance: sulfate after 3 days, fumarate after 7 days
rhAChE [5] = biological target: T1, rhAChE (Homo sapiens, UniProt P22303); conditions: for IC50: read-out: rhAChE IC50
T1 sequence (P22303 32-614): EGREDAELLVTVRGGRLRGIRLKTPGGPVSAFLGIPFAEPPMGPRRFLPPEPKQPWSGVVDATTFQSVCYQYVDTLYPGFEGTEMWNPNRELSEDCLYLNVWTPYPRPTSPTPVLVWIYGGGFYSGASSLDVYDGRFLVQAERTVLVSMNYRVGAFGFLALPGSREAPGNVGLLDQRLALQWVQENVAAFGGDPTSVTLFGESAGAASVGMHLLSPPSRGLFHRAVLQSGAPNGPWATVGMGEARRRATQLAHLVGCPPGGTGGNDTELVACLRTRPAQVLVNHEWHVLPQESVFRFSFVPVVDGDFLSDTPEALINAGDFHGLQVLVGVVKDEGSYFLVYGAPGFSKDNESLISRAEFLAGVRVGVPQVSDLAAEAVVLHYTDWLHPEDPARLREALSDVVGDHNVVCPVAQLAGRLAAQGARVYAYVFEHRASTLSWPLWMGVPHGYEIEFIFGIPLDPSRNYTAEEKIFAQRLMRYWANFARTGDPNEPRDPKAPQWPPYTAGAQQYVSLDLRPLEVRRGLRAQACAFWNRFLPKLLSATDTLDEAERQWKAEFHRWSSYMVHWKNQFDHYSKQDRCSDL

[6] = biological target: T2, BuChE (human, purified from) (Homo sapiens, UniProt P06276); assay: In vitro inhibition of BuChE, modified Ellman procedure; format: biochemical; conditions: purified human butyrylcholinesterase (plasma); mean of two or three independent experiments; read-out: hBuChE IC50
T2 construct: BuChE (human, purified from erythrocytes); from tissue
T2 sequence (P06276 29-602): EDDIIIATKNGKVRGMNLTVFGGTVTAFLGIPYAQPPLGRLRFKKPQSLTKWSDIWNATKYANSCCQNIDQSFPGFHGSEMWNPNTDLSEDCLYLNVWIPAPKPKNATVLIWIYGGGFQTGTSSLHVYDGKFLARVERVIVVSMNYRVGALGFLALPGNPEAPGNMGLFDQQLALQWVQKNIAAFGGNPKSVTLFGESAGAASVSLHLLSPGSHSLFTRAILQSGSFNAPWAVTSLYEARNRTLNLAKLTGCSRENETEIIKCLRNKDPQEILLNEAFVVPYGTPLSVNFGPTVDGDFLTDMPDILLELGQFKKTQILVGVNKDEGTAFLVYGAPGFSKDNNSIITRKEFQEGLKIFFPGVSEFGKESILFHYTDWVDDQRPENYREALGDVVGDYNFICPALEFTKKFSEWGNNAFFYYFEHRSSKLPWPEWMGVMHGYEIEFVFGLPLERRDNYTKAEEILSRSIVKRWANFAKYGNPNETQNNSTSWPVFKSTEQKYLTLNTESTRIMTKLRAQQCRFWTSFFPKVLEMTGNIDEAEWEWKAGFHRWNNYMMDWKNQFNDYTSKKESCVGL

rhAChE [7] = biological target: T1, rhAChE; assay: Decarbamylation / reconstitution of inhibited enzyme; format: biochemical; conditions: for Decarbamylation rate k: phosphate buffer, 37° C., first-order model
Description: Next, the release of amphetamine from inhibited cholinesterase was investigated indirectly by monitoring reconstitution of enzyme activity as described above. […] The enzyme was separated from small organic molecules (carbamate and possible degradation products) by size exclusion chromatography over a Sephadex column. Purified, inhibited enzyme was incubated in phosphate buffer at 37° C., aliquots were drawn at various time points and the enzymatic activity was determined as described above. The data were plotted as the natural logarithm of the percent inhibition versus time according to a first-order kinetics model. The decarbamylation rate constant k was determined as the slope of this line. The halflife t1/2 is directly related to k (k=−ln(0.500)/t1/2).

[8] = Maximum Tolerated Dose determination
Description: The in vivo effectiveness of the stigmine compounds in vivo inhibitors was evaluated. Initially, the Maximum Tolerated Dose (MTD) was determined for each compound. The MTD was defined as the dose at which clear, yet reversible and non-life threatening cholinergic effects were observed.
(§1) Following administration, rats were sacrificed and blood and brain samples were collected, processed and ChE activity was determined spectrophotometrically as described above.

[9] = test system: scopolamine model of passive avoidance; assay: Scopolamine model of passive avoidance; format: in vivo, rats; conditions: 8 and 12 mg/kg i.p. 30 minutes before training; scopolamine 0.2 mg/kg s.c.; p<0.01
Description: Prior to training, rats were injected with scopolamine hydrobromide (0.2 mg/kg, s.c, 40 minutes before training) and with either saline or compound 4a (8, 12, 16 or 24 mg/kg, i.p, 30 minutes prior to training). The animals received a retention test 24 hours following training. The retention test was identical to training except that no foot-shock or drug was delivered. Latency to enter the dark chamber was recorded.

[10] = test system: total brain cholinesterase; assay: In vivo inhibition of brain cholinesterase after oral dosing; parameters: species or system rats
Description: as §1

[11] = biological target: Recombinant human cholinesterase (Homo sapiens, UniProt P22303); assay: Amphetamine release from inhibited enzyme, LC/MS/MS; format: biochemical
Chain of Recombinant human cholinesterase (P22303 32-614): as the sequence (P22303 32-614) above

[12] = test system: total plasma cholinesterase; assay: In vivo inhibition of plasma cholinesterase after oral dosing; parameters: species or system rats
Description: as §1

[13] = test system: rats trained to discriminate methamphetamine from saline; assay: Drug discrimination (methamphetamine versus saline); format: in vivo; conditions: 0.1-3.2 mg/kg i.p. or 0.32-10 mg/kg p.o.
Excerpt: Drug discrimination is an operant paradigm that enables assessment of drug abuse liability (Yasar & Bergman, 1994. Amphetamine-like effect of 1-deprenyl (selegiline) in drug discrimination studies. Clin. Pharmacol. Therap. 56 (S78), 768-773). In this paradigm, psychostimulant properties of compounds may be determined in rats trained to discriminate methamphetamine from saline. Hungry rats are initially placed in a test apparatus where they learn that pressing either of two levers results in delivery of a food pellet. […]. On other days, rats are pretreated with vehicle, and must then select the opposite lever in order to obtain food. In this way, rats must learn to use the interoceptive cues generated by the psychostimulant drug to guide its choice of levers. Once lever pressing to a predetermined criterion has been established, a test compound can be administered. […]. If the rat chooses the methamphetamine lever, the test drug is said to have shown stimulus generalization; that is, it is perceived to be methamphetamine-like by the rat. […].

[14] = 60 minutes after oral dosing at MTD or highest dose tested, n = 4
[15] = oral dosing at MTD, mean of three measurements between 30 and 180 min following dosing

C[C@@H](Cc1ccccc1)NC(=O)Oc1cccc([C@H](C)N(C)C)c1 [C, s-riva-d-amphetamine]
duration of wakefulness (total minutes of sleep loss) (male Wistar rats): dose-related increase in wakefulness

C[C@H](Cc1ccccc1)N(C)C(=O)Oc1cccc([C@H](C)N(C)C)c1 [Compound 3d, 3-((S)-1-(dimethylamino)ethyl)phenyl methyl-((R)-1-phenylpropan-2 yl)carbamate]
mechanical stress [1]: instability to extreme thermal conditions | solubility ([2]; pH 3, aqueous buffer): > 50 mg/mL | solubility ([2]; sixteen vehicles for oral dosing (rodents), aqueous with cosolvent or surfactant or cyclodextrin): > 50 mg/mL | solid state stability to heat [3]: stable | solid state stability to UV [3]: stable | solution stability ([3]; pH 4, 5, 6, after 7 days, HPLC recovery): stable | solid state stability to visible light [3]: no change | hygroscopicity testing by DSC and XRPD ([4]; 40° C./75 RH, 7 days): stability over 7 days | maximum moisture uptake (sorption isotherm) ([4]; at 75 RH): about 1%

C[C@@H](Cc1ccccc1)NC(=O)Oc1cccc([C@H](C)N(C)C)c1 [Compound 4a]
more selective for AChE than rivastigmine (rhAChE [5]): 225 fold | IC50 (rhAChE [5]): 508 nM | IC50 [6]: 7320 nM | enzyme reconstitution (rhAChE [7]; at 4 h): 80% | Decarbamylation rate k (rhAChE [7]): 0.558 h⁻¹ | MTD ([8]; rat, in vivo, po): > 100 mg/kg | scopolamine-induced amnesia, step-through latency at 24 h retention test [9]: alleviated | Brain ChEI [10, 14]: 72% | d-amphetamine in decarbamylation aliquots ([11]; aliquots drawn 4 h later): 53 ng/mL | amphetamine in decarbamylation aliquots ([11]; aliquots drawn at t=0): did not contain amphetamine | Plasma ChEI [12, 14]: 59%

C[C@H](Cc1ccccc1)NC(=O)Oc1cccc([C@H](C)N(C)C)c1 [Compound 4b]
IC50 (rhAChE [5]): 404 nM | IC50 [6]: 416 nM | Decarbamylation rate k (rhAChE [7]): 0.057 h⁻¹ | MTD ([8]; rat, in vivo, po): 32 mg/kg | Brain ChEI [10, 14]: 25% | Plasma ChEI [12, 14]: 26%

C[C@@H](c1cccc(OC(=O)N(C)[C@@H](C)Cc2ccccc2)c1)N(C)C [Compound 4c]
IC50 [6]: 334 nM | Decarbamylation rate k (rhAChE [7]): 0.003 h⁻¹ | MTD ([8]; rat, in vivo, po): > 64 mg/kg | Brain ChEI [10, 14]: 50% | Plasma ChEI [12, 14]: 50%

CC(c1cccc(OC(=O)N(C)C(C)Cc2ccccc2)c1)N(C)C (centres unmarked) [Compound 4d]
IC50 [6]: 24400 nM | Decarbamylation rate k (rhAChE [7]): 0.011 h⁻¹ | MTD ([8]; rat, in vivo, po): 10 mg/kg | Brain ChEI [10, 14]: 64% | Plasma ChEI [12, 14]: 45%

C[C@H](Cc1ccccc1)NC(=O)Oc1cccc([C@H](C)N(C)C)c1 [Compound A, s-riva-l-amphetamine]
duration of wakefulness (total minutes of sleep loss) (male Wistar rats): dose-related increase in wakefulness

C[C@H](Cc1ccccc1)N(C)C(=O)Oc1cccc([C@H](C)N(C)C)c1 [Compound B, s-riva-l-methamphetamine]
duration of wakefulness (total minutes of sleep loss) (male Wistar rats): dose-related increase in wakefulness | rebound hypersomnolence (male Wistar rats; following administration): not observed | body temperature (male Wistar rats; rat, in vivo): reduction in body temperature | locomotor activity (male Wistar rats; rat, in vivo): did not cause locomotor hyperactivity | increase in wakefulness compared with reference compounds (male Wistar rats; versus d-amphetamine, rivastigmine, modafinil): surpassed that seen with the reference compounds tested | stimulus generalization to methamphetamine (lever selection) [13]: did not select the methamphetamine lever

C[C@@H](c1cccc(OC(=O)N(C)[C@@H](C)Cc2ccccc2)c1)N(C)C [D, s-riva-d-methamphetamine]
duration of wakefulness (total minutes of sleep loss) (male Wistar rats): dose-related increase in wakefulness

CCN(C)C(=O)Oc1cccc([C@H](C)N(C)C)c1 [Rivastigmine, rivastigmine, reference compound]
duration of wakefulness (total minutes of sleep loss) (male Wistar rats): increased wakefulness | MTD ([8]; oral, dose with clear, reversible, non-life threatening cholinergic effects, or highest dose tested): 5 mg/kg | Brain ChEI [10, 15]: 56% | Plasma ChEI [12, 15]: 39%

C[C@H](N)Cc1ccccc1 [d-amphetamine, reference compound]
duration of wakefulness (total minutes of sleep loss) (male Wistar rats): increased the duration of wakefulness

C[C@H](Cc1ccccc1)N(C)C(=O)Oc1cccc([C@H](C)N(C)C)c1.O=C(O)/C=C/C(=O)O [hydrogen fumarate salt of compound 3d, 3-((S)-1-(Dimethylamino)ethyl)phenyl methyl-((R)-1-phenylpropan-2 yl)carbamate Hydrogen Fumarate]
mechanical stress [1]: gumming | solid state stability to heat [3]: stable | solid state stability to UV [3]: stable | chemical stability in water ([3]; up to 7 days at 40° C.): stable | solid state stability to visible light [3]: stable | hygroscopicity testing, appearance ([4]; 40° C./75 RH): solid | hygroscopicity, analysis by microscopy ([4]; after 7 days at 75% relative humidity): remains crystalline with traces of amorphous material

C[C@H](Cc1ccccc1)N(C)C(=O)Oc1cccc([C@H](C)N(C)C)c1 [hydrogen sulfate salt of compound 3d, 3-(S)-1-(Dimethylamino)ethyl)phenyl methyl-((R)-1-phenylpropan-2 yl)carbamate Hydrogen Sulfate]
hygroscopicity testing, appearance ([4]; 40° C./75 RH): deliquesces

NC(=O)C[S+]([O-])C(c1ccccc1)c1ccccc1 (centres unmarked) [modafinil, reference compound]
duration of wakefulness (total minutes of sleep loss) (male Wistar rats): increased the duration of wakefulness

Reference: patent US20100256229A1, “COMPOSITIONS OF CHOL[…]” (priority 2009, published 2010)
